Experimental data taken from patent publication US20250129002A1, “PRODUCTION METHOD OF PRODUCT 1,3-BUTYLENE GLYCOL” (KH Neochem Co., Ltd., priority 2021, published 2025).

Test system: Cysteine-containing peptide for DPRA
Test: Skin sensitization test in accordance with DPRA (direct peptide reactivity assay)
Conditions: relative to peptide decrease percentage of Comparative Example 1 regarded as 100; 50 μL 1,3-butylene glycol with 0.667 mM peptide solution; HPLC after 72±2 hours; average of three measurements
Excerpt: The product 1,3-butylene glycol in the present embodiment has reduced skin sensitization. Here, skin sensitization refers to causing an allergic reaction after skin contact. For the evaluation of skin sensitization, it had been normal to use experimental animals, but a direct peptide reactivity assay (DPRA), which is an in chemico test, was adopted as an alternative test in OECD guideline TG442C in 2015 from the viewpoint of animal welfare, and in the present embodiment as well, skin sensitization is evaluated by a test in accordance with DPRA. In more detail, skin sensitization is evaluated according to a method described in experimental examples to be described below.
Regarding 1,3-butylene glycol obtained in Examples 1 and 2 and Comparative Examples 1 and 2, skin sensitization was evaluated according to the following method.
15 mg of Cysteine-containing peptide for DPRA manufactured by Scrum Inc. and 30 mL of a 0.05 M phosphate buffer were mixed together to prepare a 0.05 M phosphate buffer solution containing 0.667 mM of the peptide (hereinafter, peptide solution). After one hour elapsed from the preparation of the peptide solution, 750 μL of the peptide solution and 250 μL of acetonitrile were put into each of three brown sample bottles for HPLC to prepare three reference solutions. After two hours elapsed from the preparation of the reference solutions, 750 μL of the peptide solution, 200 μL of acetonitrile and 50 μL of 1,3-butylene glycol were put into a different brown sample bottle for HPLC to prepare a sample solution (sample solution 1). Furthermore, sample solutions were prepared by the same operation after four hours and six hours elapsed from the preparation of the sample solution, respectively (sample solution 2 and sample solution 3). Regarding each of the three reference solutions and the sample solutions (sample solution 1, sample solution 2 and sample solution 3), measurement by HPLC analysis was performed after 72±2 hours elapsed from the preparation of each solution, and the average values of three measurements were calculated for the peak height of the peptide in the reference solutions and the sample solutions, respectively. The peptide decrease percentage was calculated using the following formula (1) from the calculated average values of three measurements.
Peptide decrease percentage (%)=(average value of three measurements for peak height of peptide in sample solutions/average value of three measurements for peak height of peptide in reference solutions)×100 (1)
In addition, regarding the present test, samples of the product 1,3-butylene glycol to be compared were tested on the same day from the viewpoint of the reproducibility. […]

SMILES	Relative value of peptide decrease percentage
CC(O)CCO (stereo not shown) [Comparative Example 1, 1,3-butylene glycol]	100
CC(O)CCO (stereo not shown) [Comparative Example 2, 1,3-butylene glycol]	121
CC(O)CCO (stereo not shown) [Example 1, 1,3-butylene glycol]	73
CC(O)CCO (stereo not shown) [Example 2, 1,3-butylene glycol]	85
